Counter-ions that a name gives are not always drawn.

The LD50 is the dose expected to kill half of the subjects tested. A higher LD50 goes with a less toxic substance.

Series [1] is described as follows: Pharmacological Test 2: acute toxicity, tail vein administration, up-and-down method. The conditions noted are these: mouse, in vivo, iv, tail vein of ddY mice, in physiological saline solution. The procedure:
(§1) Nos. of the compounds in the pharmacological tests 1 and 2 correspond to those in Examples referred to hereinafter.
The acute toxicity was determined by administrating the sample compound, which was dissolved by physiological saline solution, in the tail vein of ddY mice (5-weeks-old, having a body weight of 25 to 28 g) and LD50 was obtained by the up-and-down method.

For series [2], the system named is papillary muscles of a right ventricle. The series is described as follows: Pharmacological Test 1: contraction of isolated right ventricular papillary muscles upon electric stimulation (inotropic effect). As to conditions: 3×10^-5 M; percentage of increment of contractile force, isoprotelenol (1×10^-8 M) = 100%; 1 Hz stimulation, 30° C. On the set-up: species or system male Hartley guinea pig. As for the experimental part:
as §1
(§2) A heart was removed from a male Hartley guinea pig (having a body weight of about 400 g or so) and a right atrium and papillary muscles of a right ventricle were separated from the removed heart. These preparations were suspended in 15 ml of Magnus' bath under load of 0.5 g (papillary muscles) or 1.0 g (right atria). Contraction of papillary muscles upon electric stimulation (1 Hz, 5 msec, 1.5×threshold voltage) and spontaneous contraction of the right atria were recorded through a transducer (manufactured by Orientec, T7-8-240) by a polygraph system (manufactured by NIHONKOHDEN, RMP-6008 and WT-685G).
(§3) Krebs-Henseleit solution was used as nutritive liquid bubbled with mixed gases of 95% O2 with 5% CO2 at 30° C. The value of inotropic effect is a percentage of increment of contractile force by samples when that by isoprotelenol (1×10^-8 M) is considered to be 100%. The value of chronotropic effect is a percentage of atrial rate after the injection of samples when the atrial rate before the injection is considered to be 100%.

In a further series the test system is right atria. The series is described as follows: Pharmacological Test 1: spontaneous contraction of isolated right atria (chronotropic effect). Details: species or system male Hartley guinea pig. The conditions noted are these: Cavia porcellus; 3×10^-5 M; percentage of atrial rate after injection, rate before injection = 100%; 30° C. The procedure:
as §1, §2, §3

As to `Cc1ccc(C(O)CN2CC=C(C3=NNC(=O)CS3)CC2)cc1` (stereo not shown) [hydrochloride of compound 21, Hydrochloride of 2-[1-[2-hydroxy-2-(4-methylphenyl)ethyl]-1,2,5,6-tetrahydropyrid-4-yl]-4H,6H-1,3,4-thiadiazin-5-one], in series [1], the LD50 stood at 226 mg/kg.

For the compound `O=C1CSC(C2=CCN(CC(O)c3ccc(F)cc3)CC2)=NN1` (stereo not shown) [hydrochloride of compound 35, Hydrochloride of 2-[1-[2-(4-fluorophenyl)-2-hydroxyethyl]-1,2,5,6-tetrahydropyrid-4-yl]-4H,6H-1,3,4-thiadiazin-5-one], the LD50 in series [1] amounted to 226 mg/kg. On the same count and under the same terms, next, `Cc1ccc(C(O)CN2CC=C(C3=NNC(=O)CS3)CC2)c(C)c1` (stereo not shown) [hydrochloride of compound 25, Hydrochloride of 2-[1-[2-hydroxy-2-(2,4-dimethylphenyl)ethyl]-1,2,5,6-tetrahydropyrid-4-yl]-4H,6H-1,3,4-thiadiazin-5-one]: 135 mg/kg; `O=C1CSC(C2=CCN(CC(O)c3ccc(Cl)cc3)CC2)=NN1` (stereo not shown) [hydrochloride of compound 13, Hydrochloride of 2-[1-[2-(4-chlorophenyl)-2-hydroxyethyl]-1,2,5,6-tetrahydropyrid-4-yl]-4H,6H-1,3,4-thiadiazin-5-one]: 101 mg/kg. For `O=C1CNC(C2=CCN(CC(O)c3ccc([N+](=O)[O-])cc3)CC2)=NN1` (stereo not shown) [hydrochloride of compound 60, Hydrochloride of 4,5-dihydro-3-[1-[2-hydroxy-2-(4-nitrophenyl)ethyl]-1,2,5,6-tetrahydropyrid-4-yl]-1,2,4-triazin-6(1H)-one], the LD50 in series [1] amounted to 226 mg/kg.

`Cc1cccc(C(O)CN2CC=C(C3=NNC(=O)CS3)CC2)c1` (stereo not shown) [hydrochloride of compound 20, Hydrochloride of 2-[1-[2-hydroxy-2-(3-methylphenyl)ethyl]-1,2,5,6-tetrahydropyrid-4-yl]-4H,6H-1,3,4-thiadiazin-5-one] showed a 50% lethal dose (LD50) in series [1] of 173 mg/kg.

`O=C1CSC(C2=CCN(CC(O)c3cccc([N+](=O)[O-])c3)CC2)=NN1` (stereo not shown) [hydrochloride of compound 30, Hydrochloride of 2-[1-[2-hydroxy-2-(3-nitrophenyl)ethyl]-1,2,5,6-tetrahydropyrid-4-yl]-4H,6H-1,3,4-thiadiazin-5-one] gave a 50% lethal dose (LD50) in series [1] of 160 mg/kg.

In the case of `O=C1CSC(C2=CCN(CC(O)c3ccc4c(c3)OCO4)CC2)=NN1` (stereo not shown) [Compound 32, 2-[1-[2-Hydroxy-2-[3,4-(methylenedioxy)phenyl]ethyl]-1,2,5,6-tetrahydropyrid-4-yl]-4H,6H-1,3,4-thiadiazin-5-one], the “Inotropic Effect” value in series [2] was found to be 63.9%. The compound further had an activity at 30 µM with right atria of 93.1%. Regarding `O=C1CCC(C2=CCN(CC(O)c3ccccc3Cl)CC2)=NN1` (stereo not shown) [Compound 50, 6-[1-[2-(2-Chlorophenyl)-2-hydroxyethyl]-1,2,5,6-tetrahydropyrid-4-yl]-4,5-dihydropyridazin-3 (2H)-one], the “Inotropic Effect” value in series [2] came out at 38.9%. Moreover, the activity at 30 µM in the series on right atria worked out at 98.6%. As to `O=C1CSC(C2=CCN(CC(O)c3ccc(Cl)cc3)CC2)=NN1` (stereo not shown) [Compound 13, 2-[1-[2-(4-Chlorophenyl)-2-hydroxyethyl]-1,2,5,6-tetrahydropyrid-4-yl]-4H,6H-1,3,4-thiadiazin-5-one], the “Inotropic Effect” value in series [2] is listed as 72.2%. The same compound displayed an activity at 30 µM with right atria of 93.4%.
